“And” between values parts separate entries of the source, which are not always exact repeats. Equal entries are not always repeated.

The target of one assay is cytosolic hCAs. The arrangement: method as in PMID 18600270, PMID 18374572. As to conditions: read-out: inhibition for cytosolic hCAs (weak); cited from earlier work.
Assay [1] addresses tumor-associated hCA isoforms. More on the design: method as in PMID 18600270, PMID 18374572. The conditions noted are these: cited from earlier work.
Assay [2] concerns the target T1, hCA-IX (Homo sapiens, UniProt Q16790). More on the design: purchased BPS Bioscience 71101. As to conditions: compared with compound 2; no reference given; cited from earlier work.
The next assay addresses mitochondrial hCAs. More on the design: method as in PMID 18600270, PMID 18374572. As to conditions: read-out: inhibition for mitochondrial hCAs (moderate); cited from earlier work.
Another assay concerns the target hCA-II (Homo sapiens, UniProt P00918). Briefly: colorimetric CA-inhibition assay based on CA-esterase activity, hCA-II. The conditions noted are these: hCA-II IC50, three replicate experiments; N/D = non-detected IC50 within the range of the tested concentrations.
Assay [3] addresses T1, hCA-IX. Briefly: colorimetric CA-inhibition assay based on CA-esterase activity, hCA-IX. As to conditions: for IC50: hCA-IX IC50, three replicate experiments; for Selectivity Ratio II/IX: ratio of IC50 values for isozyme CA-II relative to CA-IX.
Protocol: (§2) Based on the kit manufacturer’s protocol, the candidate inhibitors were dissolved in DMSO at 10 × highest final test concentration and specific aliquots of such working dilutions were incubated with the target hCA isozyme for 10 min at room temperature prior to permit the formation of the enzyme-inhibitor complex. Triplicate experiments were performed for each candidate inhibitor concentration. Parallel wells of solvent and enzyme controls were prepared to test the solvent impact upon the activity of the target enzyme. […] Following incubation, the CA-substrate was added and changes in absorbance (at 405 nm) were monitored for 60 min at room temperature within the kinetic mode. The negative enzyme control wells (without added compounds) were arbitrarily set as 100% enzyme activity. […] Absorbance readings from background wells were subtracted from the compound assay wells in order to account for background hydrolysis activity caused by the buffer solution [44, 45].
Assay [4] relates to SCaBER bladder squamous cell carcinoma cells. Description: MTT cell proliferation assay, SCaBER. The format is cell-based. The conditions noted are these: Homo sapiens, 48 h, ±SEM. How it is done:
(§1) Cells were cultured in 96-well plate, at cell density of 1.2–1.8 × 10^4 cells/well, using Dulbecco’s Modified Eagle Medium (Invitrogen^TM, Carlsbad, CA, USA) supplemented with 10% (w/v) fetal bovine serum (Hyclone^TM, Marlborough, MA, USA), 10 ug/mL of insulin (Sigma-Aldrich^TM, St. Louis, MO, USA), and 1% (w/v) penicillin-streptomycin (Sigma-Aldrich^TM, St. Louis, MO, USA). Following 24h-incubation period under 5% CO2 at 37 °C, cells were treated with compounds’ serial concentrations (0.1 µM–100 µM) in DMSO, where the DMSO final concentration in the culture medium never exceeded 0.2% (v/v). Subsequently, the treated microplates were incubated for 48 h at 5% CO2/37 °C prior to examination under the inverted microscope and proceeding for the MTT assay. The culture medium was discarded and 100 µL of complete medium comprising 5 mg/mL MTT dye were dispensed within every well, then plates were reincubated for 2 h at 5% CO2/37 °C. […] Color intensity within each well was measured spectrophotometrically using the ROBONIK-P2000® ELISA microplate reader (Bio-Tek^TM, Winooski, VT, USA) at 450 nm while subtracting the background absorbance of multi well plates at 690 nm. The experiment was conducted in triplicates and IC50 values were estimated through linear regression between the logarithm-transformed compound concentrations and corresponding % cell viability = (mean absorbance in test wells/mean absorbance in control wells) ∗ 100, having the response variable slope (four parameters) for all samples.

In assay [5] the test system is A-498 kidney carcinoma cells. Briefly: MTT cell proliferation assay, A-498. The class given is cell-based, human. The conditions noted are these: ±SEM. How it is done:
as §1
Background: Tetrazolium assays rely on reduction of a dye to a coloured formazan, in cell work by metabolically active cells.

Protocol for hCA-II: as §2

As to `CCCCNc1cc(C(=O)O)cc(S(N)(=O)=O)c1Oc1ccccc1` [Bumetanide, bumetanide], the results for the Ki at cytosolic hCAs and at mitochondrial hCAs were 2.57 to 6.98 µM and 0.25 to 0.7 µM, respectively. In addition, the “Ki on the tumor-associated hCA isoforms” value in assay [1] is 0.0211 to 0.0258 µM. Besides, the “hCA-IX inhibition of bumetanide” value on hCA-IX [2] was ~ 23 nM.

Consider `CCCCNc1cc(C(=O)OC)cc(S(N)(=O)=O)c1Oc1ccccc1` [Compound 2, bumetanide methyl ester], for which the IC50 (commonly the concentration at which inhibition is half-maximal) at hCA-II turned out to be 0.668 µM. On hCA-IX [3], the IC50 was 0.0237 µM and the “Selectivity Ratio II/IX” value turned out to be 28.1.

Take `CCCCNc1cc(C(=O)NN)cc(S(N)(=O)=O)c1Oc1ccccc1` [Compound 3, bumetanide hydrazide]: the half-maximal inhibitory concentration (IC50) against hCA-II was found to be 1.61 µM. Further, on hCA-IX [3], the IC50 is 0.00787 µM and the “Selectivity Ratio II/IX” value was determined as 205.1.

On to `CCCCNc1cc(C(=O)N2N=CCC2=O)cc(S(N)(=O)=O)c1Oc1ccccc1` [Compound 4], for which the IC50 against hCA-II turned out to be 1.05 µM; against hCA-IX [3], 0.0164 µM. The “Selectivity Ratio II/IX” value at hCA-IX [3] came out at 63.9.

With `CCCCNc1cc(-c2n[nH]c(=S)o2)cc(S(N)(=O)=O)c1Oc1ccccc1` [Compound 5], at hCA-II, the IC50 worked out at 0.486 µM. Besides, at hCA-IX [3], the IC50 is 0.0124 µM and the “Selectivity Ratio II/IX” value stood at 39.0.

At hCA-IX [3], `CCCCNc1cc(C(=O)n2nc(C)cc2C)cc(S(N)(=O)=O)c1Oc1ccccc1` [Compound 6a] gave an IC50 of 0.0166 µM.

As for `CCCCNc1cc(C(=O)n2nc(C)cc2-c2ccccc2)cc(S(N)(=O)=O)c1Oc1ccccc1` [Compound 6b], the results for the IC50 at hCA-II and on hCA-IX [3] were 0.858 µM and 0.00543 µM, respectively. Moreover, the “Selectivity Ratio II/IX” value at hCA-IX [3] stood at 158.9.

On hCA-II, `CCCCNc1cc(C(=O)NNC(=S)Nc2ccccc2)cc(S(N)(=O)=O)c1Oc1ccccc1` [Compound 7a] gave an IC50 of 1.57 µM. At hCA-IX [3], the IC50 is 0.0177 µM and the “Selectivity Ratio II/IX” value is recorded as 88.6.

With `C=CCNC(=S)NNC(=O)c1cc(NCCCC)c(Oc2ccccc2)c(S(N)(=O)=O)c1` [Compound 7b], the IC50 against hCA-II was found to be 1.34 µM. Further, on hCA-IX [3], the half-inhibitory concentration (IC50) came to 0.0144 µM and the “Selectivity Ratio II/IX” value came to 93.4.

Turning to `CCCCNc1cc(C(=O)NNC(=S)Nc2ccc(Br)cc2)cc(S(N)(=O)=O)c1Oc1ccccc1` [Compound 7c], the IC50 against hCA-II amounted to 1.54 µM. On hCA-IX [3], the IC50 was determined as 0.0129 µM and the “Selectivity Ratio II/IX” value was 118.9.

As to `CCCCNc1cc(C(=O)N/N=c2\scc(-c3ccc(Cl)cc3)n2-c2ccccc2)cc(S(N)(=O)=O)c1Oc1ccccc1` [Compound 8a], the IC50 in assay [4] came out at 28.4 ± 1.4 µM; at hCA-II, 0.251 µM; in assay [5] (48 h), 15.7 ± 0.63 µM; in assay [5] (Homo sapiens, A498, 48 h), 15.6 µM; against hCA-IX [3], 0.00653 µM. Moreover, the “Selectivity Ratio II/IX” value on hCA-IX [3] came to 38.6.

`CCCCNc1cc(C(=O)N/N=c2\scc(-c3ccc(C)cc3)n2-c2ccccc2)cc(S(N)(=O)=O)c1Oc1ccccc1` [Compound 8b] displayed a concentration for half-maximal inhibition (IC50) against hCA-II of 1.32 µM. On hCA-IX [3], half-maximal inhibition (IC50) was put at 0.013 µM and the “Selectivity Ratio II/IX” value was 101.6.

Turning to `CCCCNc1cc(C(=O)N/N=c2\scc(-c3ccc(OC)cc3)n2-c2ccccc2)cc(S(N)(=O)=O)c1Oc1ccccc1` [Compound 8c], at hCA-II, 0.474 µM corresponded to half-maximal inhibition (IC50). At hCA-IX [3], the IC50 worked out at 0.0126 µM and the “Selectivity Ratio II/IX” value is recorded as 37.5.

As for `C=CCn1c(-c2ccc(Cl)cc2)cs/c1=N\NC(=O)c1cc(NCCCC)c(Oc2ccccc2)c(S(N)(=O)=O)c1` [Compound 8d], on hCA-II, the IC50 was 5.12 µM. Moreover, on hCA-IX [3], the IC50 was 0.00636 µM and the “Selectivity Ratio II/IX” value came to 804.6.

In turn, `C=CCn1c(-c2ccc(C)cc2)cs/c1=N\NC(=O)c1cc(NCCCC)c(Oc2ccccc2)c(S(N)(=O)=O)c1` [Compound 8e] showed an IC50 against hCA-II of 0.518 µM. Also, at hCA-IX [3], half-maximal inhibition (IC50) was put at 0.0115 µM and the “Selectivity Ratio II/IX” value amounted to 44.9.

With `C=CCn1c(-c2ccc(OC)cc2)cs/c1=N\NC(=O)c1cc(NCCCC)c(Oc2ccccc2)c(S(N)(=O)=O)c1` [Compound 8f], the midpoint of inhibition against hCA-II, the IC50, lay at 0.999 µM. At hCA-IX [3], the IC50 is 0.0134 µM and the “Selectivity Ratio II/IX” value was found to be 74.5.

On to `CCCCNc1cc(C(=O)N/N=c2\scc(-c3ccc(Cl)cc3)n2-c2ccc(Br)cc2)cc(S(N)(=O)=O)c1Oc1ccccc1` [Compound 8g], for which the IC50 on hCA-II was 0.784 µM; against hCA-IX [3] it was > 0.007 µM and 0.00718 µM. Besides, at hCA-IX [3], the “Selectivity Ratio II/IX” value is 109.2.

On to `CCCCNc1cc(C(=O)N/N=c2\scc(-c3ccc(C)cc3)n2-c2ccc(Br)cc2)cc(S(N)(=O)=O)c1Oc1ccccc1` [Compound 8h], for which the concentration for half-maximal inhibition (IC50) in assay [4] was 78.04 ± 0.29 µM; against hCA-II, 0.205 µM and 0.209 µM; in assay [5] (Homo sapiens, A498, 48 h) it was 6.55 ± 0.26 µM; at hCA-IX [3] it was > 0.007 µM and 0.0143 µM. The “Selectivity Ratio II/IX” value at hCA-IX [3] is recorded as 14.5.

For `CCCCNc1cc(C(=O)N/N=c2\scc(-c3ccc(OC)cc3)n2-c2ccc(Br)cc2)cc(S(N)(=O)=O)c1Oc1ccccc1` [Compound 8i], the half-inhibitory concentration (IC50) is 0.426 µM against hCA-II; > 0.007 µM and 0.0106 µM at hCA-IX [3]. The “Selectivity Ratio II/IX” value at hCA-IX [3] was 40.3.

As to `CCCCNc1cc(-c2n[nH]c(=S)n2-c2ccccc2)cc(S(N)(=O)=O)c1Oc1ccccc1` [Compound 9a], the IC50 against hCA-II was 4.06 µM; against hCA-IX [3] it was 0.00531 µM. Further, the “Selectivity Ratio II/IX” value on hCA-IX [3] is 764.8.

As to `C=CCn1c(-c2cc(NCCCC)c(Oc3ccccc3)c(S(N)(=O)=O)c2)n[nH]c1=S` [Compound 9b], the IC50 in assay [4] was 78.1 ± 1.7 µM; on hCA-II, 0.205 µM; in assay [5] (48 h), 16.1 ± 1.4 µM; in assay [5] (Homo sapiens, A498, 48 h), 16 µM; on hCA-IX [3], 0.00725 µM. The “Selectivity Ratio II/IX” value at hCA-IX [3] came to 28.3.

These data come from paper PMC7558282, “The Anticancer Activity for the Bumetanide-Based Analogs via Targeting the Tumor-Associated Membrane-Bound Human Carbonic Anhydrase-IX Enzyme” (Pharmaceuticals, 2020).
